ChEMBL document CHEMBL4765403, “Augmentation of the antitumor effects of PARP inhibitors in triple-negative breast cancer via degradation by hydrophobic tagging modulation” (Eur J Med Chem, 2020)
The source made the active and inactive calls. No cut-off for these calls is given here.

Assays:
[1] = system: MDA-MB-231; assay: Induction of apoptosis in human MDA-MB-231 cells assessed as decrease in Bcl2 protein expression at 5 uM incubated for 24 to 48 hrs by Western blot analysis; assay type: functional, cell-based; conditions: time 24-48 hrs
[2] = system: MDA-MB-231; assay: Induction of endoplasmic reticulum stress in human MDA-MB-231 cells assessed as increase in CHOP protein expression at 5 uM measured after 24 to 72 hrs by Western blot analysis; assay type: functional, cell-based; conditions: time 24-72 hrs
[3] = biological target: Poly [ADP-ribose] polymerase 1 (Homo sapiens) (UniProt P09874); assay: Induction of PARP1 degradation in triple-negative human MDA-MB-231 cells assessed as fold change in PARP1 protein expression at 10 uM incubated for 48 hrs by Western blot analysis relative to control; assay type: cell-based
[4] = system: MDA-MB-231; assay: Induction of apoptosis in human MDA-MB-231 cells assessed as downregulation in survivin gene expression at 5 to 10 uM incubated for 24 to 48 hrs by RT-PCR analysis; assay type: functional, cell-based; conditions: dose 5-10 µM, time 24-48 hrs
[5] = biological target: Poly [ADP-ribose] polymerase 1 (Homo sapiens) (UniProt P09874); assay: Induction of PARP1 degradation in human MDA-MB-231 cells at 5 uM incubated for 48 hrs in presence of proteasome inhibitor, bortezomib by immunoblotting analysis; assay type: cell-based
[6] = system: MDA-MB-231; assay: Induction of endoplasmic reticulum stress in human MDA-MB-231 cells assessed as upregulation in XBP-1s gene expression at 5 to 10 uM incubated for 24 to 48 hrs by RT-PCR analysis; assay type: functional, cell-based; conditions: dose 5-10 µM, time 24-48 hrs
[7] = system: MDA-MB-231; assay: Induction of autophagy in human MDA-MB-231 cells assessed as upregulation in LC3B gene expression at 5 to 10 uM measured after 24 to 48 hrs by RT-PCR analysis; assay type: functional, cell-based; conditions: dose 5-10 µM, time 24-48 hrs
[8] = system: MDA-MB-468; assay: Induction of endoplasmic reticulum stress in human MDA-MB-468 cells assessed as increase in CHOP protein expression at 5 uM incubated for 48 hrs by Western blot analysis; assay type: functional, cell-based
[9] = system: MDA-MB-231; assay: Induction of autophagy in human MDA-MB-231 cells assessed as upregulation in LC3B protein expression at 5 uM measured after 48 to 72 hrs by Western blot analysis; assay type: functional, cell-based; conditions: time 48-72 hrs
[10] = biological target: Poly [ADP-ribose] polymerase 1 (Homo sapiens) (UniProt P09874); assay: Induction of PARP1 degradation in human MDA-MB-231 cells assessed as fold change in PARP1 protein expression at 5 uM pretreated with caspase I inhibitor, Ac-YVAD-cmk for 2 hrs followed by incubation with compound for 48 hrs by Western blot analysis relative to control; assay type: cell-based
[11] = biological target: Poly [ADP-ribose] polymerase 1 (Homo sapiens) (UniProt P09874); assay: Induction of PARP1 degradation in triple negative human MDA-MB-468 cells assessed as fold change in PARP1 protein expression at 5 uM incubated for 48 hrs by Western blot analysis relative to control; assay type: cell-based
[12] = system: MDA-MB-468; assay: Induction of apoptosis in human MDA-MB-468 cells assessed as increase in p21 protein expression at 5 uM incubated for 48 hrs by Western blot analysis; assay type: functional, cell-based
[13] = system: MDA-MB-468; assay: Induction of apoptosis in human MDA-MB-468 cells assessed as decrease in Bcl2 protein expression at 5 uM incubated for 48 hrs by Western blot analysis; assay type: functional, cell-based
[14] = system: MDA-MB-231; assay: Induction of autophagy in human MDA-MB-231 cells assessed as upregulation in LC3A gene expression at 5 to 10 uM measured after 24 to 48 hrs by RT-PCR analysis; assay type: functional, cell-based; conditions: dose 5-10 µM, time 24-48 hrs
[15] = system: MDA-MB-231; assay: Induction of apoptosis in human MDA-MB-231 cells assessed as downregulation in Bcl2 gene expression at 5 to 10 uM incubated for 24 to 48 hrs by RT-PCR analysis; assay type: functional, cell-based; conditions: dose 5-10 µM, time 24-48 hrs
[16] = system: MDA-MB-231; assay: Induction of apoptosis in human MDA-MB-231 cells assessed as increase in p21 protein expression at 5 uM incubated for 24 to 48 hrs by Western blot analysis; assay type: functional, cell-based; conditions: time 24-48 hrs
[17] = system: MDA-MB-468; assay: Induction of autophagy in human MDA-MB-468 cells assessed as upregulation in LC3B protein expression at 5 uM measured after 48 hrs by Western blot analysis; assay type: functional, cell-based
[18] = biological target: Poly [ADP-ribose] polymerase 1 (Homo sapiens) (UniProt P09874); assay: Induction of PARP1 degradation in human MDA-MB-468 cells assessed as fold change in PARP1 protein expression at 5 uM pretreated with caspase I inhibitor, Ac-YVAD-cmk for 2 hrs followed by incubation with compound for 48 hrs by Western blot analysis relative to control; assay type: cell-based
[19] = biological target: Poly [ADP-ribose] polymerase 1 (Homo sapiens) (UniProt P09874); assay: Induction of PARP1 degradation in human MDA-MB-231 cells at 5 uM incubated for 48 hrs in presence 5 to 10 uM PARP1 inhibitor olaparib by Western blot analysis; assay type: cell-based
[20] = system: MDA-MB-231; assay: Induction of apoptosis in human MDA-MB-231 cells assessed as upregulation in Bax gene expression at 5 to 10 uM incubated for 24 to 48 hrs by RT-PCR analysis; assay type: functional, cell-based; conditions: dose 5-10 µM, time 24-48 hrs
[21] = biological target: Poly [ADP-ribose] polymerase 1 (Homo sapiens) (UniProt P09874); assay: Induction of PARP1 degradation in triple-negative human MDA-MB-231 cells assessed as fold change in PARP1 protein expression at 0.5 uM incubated for 24 hrs by Western blot analysis relative to control; assay type: cell-based
[22] = system: MDA-MB-231; assay: Induction of apoptosis in human MDA-MB-231 cells assessed as increase in Bax protein expression at 5 uM incubated for 24 to 48 hrs by Western blot analysis; assay type: functional, cell-based; conditions: time 24-48 hrs
[23] = system: MDA-MB-231; assay: Induction of endoplasmic reticulum stress in human MDA-MB-231 cells assessed as increase in XBP-1s protein expression at 5 uM measured after 24 to 72 hrs by Western blot analysis; assay type: functional, cell-based; conditions: time 24-72 hrs
[24] = biological target: Poly [ADP-ribose] polymerase 1 (Homo sapiens) (UniProt P09874); assay: Induction of PARP1 degradation in triple-negative human MDA-MB-231 cells assessed as fold change in PARP1 protein expression at 1 uM incubated for 24 hrs by Western blot analysis relative to control; assay type: cell-based
[25] = biological target: Poly [ADP-ribose] polymerase 1 (Homo sapiens) (UniProt P09874); assay: Induction of PARP1 degradation in triple-negative human MDA-MB-231 cells assessed as fold change in PARP1 protein expression at 5 uM incubated for 24 hrs by Western blot analysis relative to control; assay type: cell-based
[26] = biological target: Poly [ADP-ribose] polymerase 1 (Homo sapiens) (UniProt P09874); assay: Induction of PARP1 degradation in triple-negative human MDA-MB-231 cells assessed as fold change in PARP1 protein expression at 0.1 uM incubated for 48 hrs by Western blot analysis relative to control; assay type: cell-based
[27] = biological target: Poly [ADP-ribose] polymerase 1 (Homo sapiens) (UniProt P09874); assay: Induction of PARP1 degradation in triple-negative human MDA-MB-468 cells assessed as fold change in PARP1 protein expression at 5 uM incubated for 24 hrs by Western blot analysis relative to control; assay type: cell-based
[28] = system: MDA-MB-231; assay: Induction of apoptosis in human MDA-MB-231 cells assessed as apoptotic body formation at 5 uM incubated for 24 to 48 hrs by transmission electron microscopy; assay type: functional, cell-based; conditions: time 24-48 hrs

Chain of Poly [ADP-ribose] polymerase 1 (Homo sapiens) (P09874 whole entry): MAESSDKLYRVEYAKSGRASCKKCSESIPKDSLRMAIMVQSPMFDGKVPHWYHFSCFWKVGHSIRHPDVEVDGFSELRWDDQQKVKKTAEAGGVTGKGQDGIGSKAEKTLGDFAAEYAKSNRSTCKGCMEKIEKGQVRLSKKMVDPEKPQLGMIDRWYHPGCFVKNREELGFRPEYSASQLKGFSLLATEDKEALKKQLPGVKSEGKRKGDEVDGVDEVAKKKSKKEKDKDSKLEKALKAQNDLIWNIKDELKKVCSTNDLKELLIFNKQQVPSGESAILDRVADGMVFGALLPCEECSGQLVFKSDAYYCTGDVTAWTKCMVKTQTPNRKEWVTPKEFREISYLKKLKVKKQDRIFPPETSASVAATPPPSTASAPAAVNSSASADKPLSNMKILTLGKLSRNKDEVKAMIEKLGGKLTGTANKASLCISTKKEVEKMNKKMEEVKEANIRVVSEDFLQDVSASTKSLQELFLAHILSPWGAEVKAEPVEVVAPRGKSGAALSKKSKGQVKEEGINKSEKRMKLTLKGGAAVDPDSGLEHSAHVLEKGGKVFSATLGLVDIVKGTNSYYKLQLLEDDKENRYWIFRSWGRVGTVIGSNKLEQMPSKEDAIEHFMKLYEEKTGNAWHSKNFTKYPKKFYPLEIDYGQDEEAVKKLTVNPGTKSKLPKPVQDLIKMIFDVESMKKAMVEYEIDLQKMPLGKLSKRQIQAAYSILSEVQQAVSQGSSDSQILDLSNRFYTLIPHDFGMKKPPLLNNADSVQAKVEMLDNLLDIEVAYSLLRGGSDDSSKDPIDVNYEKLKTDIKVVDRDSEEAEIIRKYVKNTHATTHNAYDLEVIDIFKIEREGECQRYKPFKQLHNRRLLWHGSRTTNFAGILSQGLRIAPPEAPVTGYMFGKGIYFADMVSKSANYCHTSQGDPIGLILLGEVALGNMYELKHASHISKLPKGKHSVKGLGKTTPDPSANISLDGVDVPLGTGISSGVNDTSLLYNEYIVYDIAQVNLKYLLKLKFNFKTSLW

- fold change (FC) [3]: 0.1
- Activity [5]: inactive
- fold change (FC) [10]: 0.3
- fold change (FC) [11]: 0.3
- fold change (FC) [18]: 0.2
- Activity [19]: inactive
- fold change (FC) [21]: 0.8
- fold change (FC) [24]: 0.8
- fold change (FC) [25]: 0.8
- fold change (FC) [26]: 0.6
- fold change (FC) [27]: 0.8
Compound: O=C(CC1c2ccccc2-c2ccccc21)N1CCN(C(=O)c2cc(Cc3n[nH]c(=O)c4ccccc34)ccc2F)CC1
- Activity [1]: Active
- Activity [2]: Active
- Activity [4]: Active
- Activity [6]: Active
- Activity [7]: Active
- Activity [8]: Active
- Activity [9]: Active
- Activity [12]: Active
- Activity [13]: Active
- Activity [14]: Active
- Activity [15]: Active
- Activity [16]: Active
- Activity [17]: Active
- Activity [20]: Active
- Activity [22]: Active
- Activity [23]: Active
- Activity [28]: Active
